The results in this text go back to patent publication US9096639B2, “17-hydroxy-17-pentafluorethyl-estra-4,9(10)-dien-11-acyloxyalkylene phenyl derivatives, methods for the production thereof and use thereof for treating diseases” (Bayer Intellectual Property GmbH, priority 2009, dated 2015).

Series [1] can be described thus: Determination of hydrolytic stability (5:1 dioxane/buffer, HPLC). It is filed as physicochemical. The settings on record: 5:1 dioxane/buffer solution, test ended after 24 or 192 hours, read-out: Hydrolytic stability t1/2. The protocol:
The ester to be analyzed was dissolved in each case in a 5:1 mixture of dioxane and buffer solution (pH 1.2, pH 5.0 or pH 8.0) at 23° C. At different times, the content of ester and hydrolysis products (8S,11R,13S,14S,1 7S)-17-hydroxy-11-[4-((R)-1-hydroxyethyl)phenyl]-13-methyl-17-pentafluoroethyl-1,2,6,7,8,11,12,13,14,15,16,17-dodecahydrocyclopenta[a]phenanthren-3-one and/or (8S,11R,13S,14S,17S)-17-hydroxy-11-[4-((S)-1-hydroxyethyl)phenyl]-1 3-methyl-17-pentafluoroethyl-1,2,6,7,8,11,12,13,14,15,16,17-dodecahydrocyclopenta[a]phenanthren-3-one was determined by HPLC. The test was ended after 24 hours or 192 hours.

Series [2] is described as follows: Determination of hydrolytic stability in synthetic gastric juice (pH 1.2 buffer with pepsin). The settings on record: 37° C., pH 1.2 with added pepsin, test ended after 24 hours, read-out: Hydrolytic stability t1/2 in synthetic gastric juice (converted). It is filed as in vitro ADME. As for the experimental part: The esters to be analyzed were dissolved in each case in a buffer solution of pH 1.2 with added pepsin at 37° C. At different times, the content of ester and hydrolysis products (8S,11R,13S,14S,17S)-17-hydroxy-11-[4-((R)-1-hydroxyethyl)phenyl]-1 3-methyl-17-pentafluoroethyl-1,2,6,7,8,11,12,13,14,15,16,17-dodecahydrocyclopenta[a]phenanthren-3-one and/or (8S,11R,13S,14S,17S)-17-hydroxy-11-[4-((S)-1-hydroxyethyl)phenyl]-13-methyl-17-pentafluoroethyl-1,2,6,7,8,11,12,13,14,15,16,17-dodecahydrocyclopenta[a]phenanthren-3-one was determined by HPLC. The test was ended after 24 hours.

Series [3] can be described thus: Determination of stability in human plasma. It is filed as in vitro ADME. The protocol:
(§1) A stock solution of 1.0 mg of the substance to be tested in a 9:1 mixture of acetonitrile and dimethyl sulphoxide was prepared. 20 μl of this stock solution were added at 37° C. to 1 ml of human plasma or rat plasma. To determine the content, 100 μl samples were each taken at different times. The enzyme activity was blocked by adding 300 μl of acetonitrile, the samples were centrifuged at 5000 rpm over 10 minutes and, in the supernatant, the content of ester and hydrolysis products (8S,11R,13S,14S,17S)-17-hydroxy-11-[4-((R)-1-hydroxyethyl)phenyl]-1 3-methyl-17-pentafluoroethyl-1,2,6,7,8,11,12,13,14,15,16,17-dodecahydrocyclopenta[a]phenanthren-3-one and/or (8S,11R,13S,14S,17S)-17-hydroxy-11-[4-((S)-1-hydroxyethyl)phenyl]-13-methyl-17-pentafluoroethyl-1,2,6,7,8,11,12,13,14,15,16,17-dodecahydrocyclopenta[a]phenanthrene-3-one was determined by HPLC. The concentration-time curves were used to calculate the degradation kinetics. The stability of the substance tested was reported as the half-life.

Series [4] is described as follows: Determination of stability in rat plasma. The settings on record: 37° C., read-out: Stability t1/2 in rat plasma (converted). The series is classed as in vitro ADME. As for the experimental part:
as §1

Series [5] deals with T1, human progesterone receptor B (Homo sapiens, UniProt P06401).
T1 construct: expressed in transfected cells; host or cells: SK-N-MC human neuroblastoma cells, stably transfected with pRChPR-B-neo and pMMTV-LUC
T1 sequence (P06401 1-933): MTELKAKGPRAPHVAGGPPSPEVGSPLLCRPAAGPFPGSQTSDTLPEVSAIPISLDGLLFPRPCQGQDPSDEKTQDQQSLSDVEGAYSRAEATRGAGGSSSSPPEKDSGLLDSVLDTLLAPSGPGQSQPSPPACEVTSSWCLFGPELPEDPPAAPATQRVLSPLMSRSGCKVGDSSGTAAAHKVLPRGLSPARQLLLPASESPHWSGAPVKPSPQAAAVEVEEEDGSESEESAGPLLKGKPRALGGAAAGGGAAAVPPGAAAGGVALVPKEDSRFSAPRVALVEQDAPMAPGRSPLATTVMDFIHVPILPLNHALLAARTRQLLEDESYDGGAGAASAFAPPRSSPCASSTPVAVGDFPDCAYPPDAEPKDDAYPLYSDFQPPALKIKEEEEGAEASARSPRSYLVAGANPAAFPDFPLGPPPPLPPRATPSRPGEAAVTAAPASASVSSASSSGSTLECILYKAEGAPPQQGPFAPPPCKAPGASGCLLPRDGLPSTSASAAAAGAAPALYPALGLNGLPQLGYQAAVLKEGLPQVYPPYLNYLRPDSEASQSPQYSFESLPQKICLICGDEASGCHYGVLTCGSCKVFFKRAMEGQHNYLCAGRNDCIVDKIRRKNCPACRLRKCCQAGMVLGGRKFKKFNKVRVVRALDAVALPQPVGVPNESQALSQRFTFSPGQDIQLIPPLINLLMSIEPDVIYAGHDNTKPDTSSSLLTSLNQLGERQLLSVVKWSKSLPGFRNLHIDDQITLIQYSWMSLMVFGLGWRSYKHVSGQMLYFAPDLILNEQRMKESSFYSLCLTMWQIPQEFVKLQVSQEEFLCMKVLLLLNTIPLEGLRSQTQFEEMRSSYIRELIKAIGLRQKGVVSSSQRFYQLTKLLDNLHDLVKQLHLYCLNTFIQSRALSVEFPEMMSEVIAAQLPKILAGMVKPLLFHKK
Description: Progesterone receptor transactivation test in stably transfected SK-N-MC cells (PR-B, MMTV-LUC reporter). It is filed as cell-based. The settings on record: 0.1 nmol/l promegestone, 24 hours, read-out: PR-B IC50 (antagonistic potency). As for the experimental part:
Progesterone receptor-antagonistic action in stable transfectants of human neuroblastoma cells (SK-N-MC cells) with the human progesterone A or progesterone B receptor and an MN-LUC reporter construct SK-N-MC cells (human neuroblastoma cells) which have been stably transfected with plasmids expressing the human progesterone receptor B (pRChPR-B-neo) or the human progesterone receptor A (pRChPR-A-neo) and a reporter construct (pMMTV-LUC) were incubated for 24 hours either in the absence (negative control) or in the presence of ascending amounts of the particular test compound (0.01 nmol/l, 0.1 nmol/l, 1 […], 100 nmol/l and […]), in order to determine the agonistic efficacy. As a positive control of the reporter gene induction, the cells were treated with the synthetic gestagen promegestone (0.01 nmol/l, 0.1 nmol/l, 1 nmol/l, 10 nmol/l, 100 nmol/l and […]). To determine the antagonistic activity, the cells were treated with 0.1 nmol/l promegestone and additionally with ascending amounts of the particular test compound (0.01 nmol/l, 0.1 nmol/l, 1 nmol/l, 10 nmol/l, 100 nmol/l and […]). The activity of the reporter gene LUC (LUC=luciferase) was determined in the cell lysates and measured as RLU (relative light units). All measurements are reported as % efficacy and as EC50 and IC50 concentrations.

[6] abbreviates: 37° C., read-out: Stability t1/2 in human plasma (converted).
[7] abbreviates: method of working example 19, summary statement in description, read-out: half-life in human plasma.

Bounds are passed on as bounds.

By IC50 is commonly meant the concentration that inhibits the measured activity by half.

On to `CC(=O)O[C@H](C)c1ccc([C@H]2C[C@@]3(C)C(CC[C@@]3(O)C(F)(F)C(F)(F)F)C3CCC4=CC(=O)CCC4=C32)cc1` (mixture of isomers) [Example 1, acetic acid (RS)-1-[4-((8S,11R,13S,14S,17S)-17-hydroxy-13-methyl-3-oxo-17-pentafluoroethyl-2,3,6,7,8,11,12,13,14,15,16,17-dodecahydro-1H-cyclopenta[a]phenanthren-11-yl)phenyl]ethyl ester], for which the half-life was > 24 h in series [1] (pH = 1.2, 23° C.); > 24 h in series [1] (pH = 5.0, 23° C.); > 24 h in series [1] (pH = 8.0, 23° C.); 9.6 h in series [2]; 609 h in series [3] (setting [6]); > 100 h in series [3] (setting [7]). Also, the half-life in series [4] was 57.5 h. Besides, the IC50 in series [5] was 0.08 nM.

For `CC(C)CC(=O)OC(C)c1ccc([C@H]2C[C@@]3(C)C(CC[C@@]3(O)C(F)(F)C(F)(F)F)C3CCC4=CC(=O)CCC4=C32)cc1` (mixture of isomers) [Example 3, 3-Methylbutyric acid (RS)-1-[4-((8S,11R,13S,14S,17S)-17-hydroxy-13-methyl-3-oxo-17-pentafluoroethyl-2,3,6,7,8,11,12,13,14,15,16,17-dodecahydro-1H-cyclopenta[a]phenanthren-11-yl)phenyl]ethyl ester], the half-life in series [1] (pH = 1.2, 23° C.) is > 24 h; in series [1] (pH = 5.0, 23° C.), > 24 h; in series [1] (pH = 8.0, 23° C.), > 24 h; in series [2] it was > 24 h; in series [3] (setting [6]), > 1000 h; in series [3] (setting [7]), > 100 h. Besides, in series [4], the half-life is 89 h. Also, the IC50 in series [5] was 0.2 nM.

`CC(OC(=O)CC(C)(C)C)c1ccc([C@H]2C[C@@]3(C)C(CC[C@@]3(O)C(F)(F)C(F)(F)F)C3CCC4=CC(=O)CCC4=C32)cc1` (mixture of isomers) [Example 4, 3,3-Dimethylbutyric acid (RS)-1-[4-((8S,11R,13S,14S,17S)-17-hydroxy-13-methyl-3-oxo-17-pentafluoroethyl-2,3,6,7,8,11,12,13,14,15,16,17-dodecahydro-1H-cyclopenta[a]phenanthren-11-yl)phenyl]ethyl ester]: the half-life in series [1] (pH = 1.2, 23° C.) was > 24 h; in series [1] (pH = 5.0, 23° C.), > 24 h; in series [1] (pH = 8.0, 23° C.), > 24 h; in series [2], > 24 h; in series [3] (setting [6]), > 1000 h; in series [3] (setting [7]) it was > 100 h. Moreover, the half-life in series [4] was > 1000 h. The concentration for half-maximal inhibition (IC50) in series [5] was found to be 0.4 nM.

Regarding `CC(OC(=O)[C@@H](C)NC(=O)OC(C)(C)C)c1ccc([C@H]2C[C@@]3(C)[C@@H](CC[C@@]3(O)C(F)(F)C(F)(F)F)[C@@H]3CCC4=CC(=O)CCC4=C32)cc1` (mixture of isomers) [Example 6, (R)-2-tert-Butoxycarbonylaminopropionic acid (RS)-1-[4-((8S,11R,13S,-14S,17S)-17-hydroxy-13-methyl-3-oxo-17-pentafluoroethyl-2,3,6,7,8,11,12,13,14,15,16,17-dodecahydro-1H-cyclopenta[a]phenanthren-11-yl)phenyl]ethyl ester], the half-life in series [1] (pH = 1.2, 23° C.) was > 24 h; in series [1] (pH = 5.0, 23° C.), > 24 h; in series [1] (pH = 8.0, 23° C.), > 24 h; in series [2], 5.4 h; in series [3] (setting [6]), 491 h; in series [3] (setting [7]), > 100 h. For the same molecule, the half-life in series [4] was 43.9 h. In series [5], the IC50 came out at 0.2 nM.

Take `CC(C)C(=O)OC(C)c1ccc([C@H]2C[C@@]3(C)C(CC[C@@]3(O)C(F)(F)C(F)(F)F)C3CCC4=CC(=O)CCC4=C32)cc1` (mixture of isomers) [Example 2, Isobutyric acid (RS)-1-[4-((8S,11R,13S,14S,17S)-17-hydroxy-13-methyl-3-oxo-17-pentafluoroethyl-2,3,6,7,8,11,12,13,14,15,16,17-dodecahydro-1H-cyclopenta[a]-phenanthren-11-yl)phenyl]ethyl ester]: the half-life in series [1] (pH = 1.2, 23° C.) is > 24 h; in series [1] (pH = 5.0, 23° C.) it was > 24 h; in series [1] (pH = 8.0, 23° C.) it was > 24 h; in series [2], > 24 h; in series [3] (setting [6]), 803 h; in series [3] (setting [7]), > 100 h. In addition, the half-life in series [4] was 33.4 h. Also, in series [5], the IC50 is 0.1 nM.

As to `CC(OC(=O)[C@@H](NC(=O)OC(C)(C)C)C(C)C)c1ccc([C@H]2C[C@@]3(C)C(CC[C@@]3(O)C(F)(F)C(F)(F)F)C3CCC4=CC(=O)CCC4=C32)cc1` (mixture of isomers) [Example 5, (S)-2-tert-Butoxycarbonylamino-3-methylbutyric acid (RS)-1-[4-((8S,11R,-13S,14S,17S)-17-hydroxy-13-methyl-3-oxo-17-pentafluoroethyl-2,3,6,7,8,11,12,13,14,15,-16,17-dodecahydro-1H-cyclopenta[a]phenanthren-11-yl)phenyl]ethyl ester], the half-life is > 192 h in series [1] (pH = 1.2, 23° C.); > 192 h in series [1] (pH = 5.0, 23° C.); > 192 h in series [1] (pH = 8.0, 23° C.); 3 h in series [2]; > 1000 h in series [3] (setting [6]); > 100 h in series [3] (setting [7]). Also, the half-life in series [4] was 156 h. In series [5], the IC50 was 0.8 nM.
